The source made the active and inactive calls. The rule behind the calls is not given here. Where a SMILES comes first, the peptide text is derived from it.
Columns and labels:
[1] = tested on: Staphylococcus aureus; experiment: Antibacterial activity against Staphylococcus aureus ATCC 29213 assessed as reduction in microbial growth incubated for 24 hrs by microbroth dilution method; format: functional
[2] = tested on: Staphylococcus aureus; experiment: Antibacterial activity against Methicillin resistant Staphylococcus aureus ATCC BAA -1556 assessed as reduction in microbial growth incubated for 24 hrs by microbroth dilution method; format: functional
[3] = tested on: Escherichia coli; experiment: Antibacterial activity against Escherichia coli ATCC 25922 assessed as reduction in microbial growth incubated for 24 hrs by microbroth dilution method; format: functional
[4] = tested on: Escherichia coli; experiment: Antibacterial activity against carbapenem and NDM-1 positive resistant Escherichia coli ATCC BAA 2452 assessed as reduction in microbial growth incubated for 24 hrs by microbroth dilution method; format: functional
[5] = tested on: Pseudomonas aeruginosa; experiment: Antibacterial activity against carbapenem resistant Pseudomonas aeruginosa ATCC BAA 1744 assessed as reduction in microbial growth incubated for 24 hrs by microbroth dilution method; format: functional
[6] = tested on: Escherichia coli; experiment: Synergistic antibacterial activity against carbapenem and NDM-1 positive resistant Escherichia coli ATCC BAA 2452 assessed as fractional inhibitory concentration index incubated for 24 hrs in presence of meropenem by checkerboard assay; format: functional
[7] = tested on: Pseudomonas aeruginosa; experiment: Synergistic antibacterial activity against carbapenem resistant Pseudomonas aeruginosa ATCC BAA 1744 assessed as fractional inhibitory concentration index incubated for 24 hrs in presence of meropenem by checkerboard assay; format: functional
[8] = tested on: Staphylococcus aureus; experiment: Bactericidal activity against methicillin resistant Staphylococcus aureus ATCC BAA 1556 assessed as reduction in bacterial viability at MIC measured after 2 hrs by Time kill assay; format: functional, organism-based
[9] = tested on: Staphylococcus aureus; experiment: Bactericidal activity against methicillin resistant Staphylococcus aureus ATCC BAA 1556 assessed as reduction in colony formation at MIC measured at 8 to 12 hrs by Time kill assay; format: functional, organism-based; conditions: time 8-12 hrs
[10] = tested on: Escherichia coli; experiment: Bactericidal activity against Escherichia coli ATCC BAA 2452 assessed as reduction in colony formation at MIC measured after 12 hrs by Time kill assay; format: functional, organism-based
[11] = tested on: Pseudomonas aeruginosa; experiment: Bactericidal activity against Pseudomonas aeruginosa ATCC BAA 1744 assessed as reduction in bacterial growth at MIC measured after 4 hrs by Time kill assay; format: functional, organism-based
[12] = tested on: Klebsiella pneumoniae; experiment: Bactericidal activity against Klebsiella pneumoniae ATCC BAA 1705 assessed as reduction in colony formation at MIC measured after 24 hrs by Time kill assay; format: functional, organism-based
[13] = tested on: Cell membrane; experiment: Induction of membrane disruption in Staphylococcus aureus ATCC BAA -1556 assessed as increase in PI positive cells at MIC incubated for 2 hrs by Propidium iodide staining based FACS cytometry analysis relative to control
[14] = tested on: Cell membrane; experiment: Induction of membrane disruption in Staphylococcus aureus ATCC BAA -1556 assessed as increase in PI positive cells at 4 times of MIC incubated for 2 hrs by Propidium iodide staining based FACS cytometry analysis relative to control; format: subcellular
[15] = tested on: HEK293; experiment: Cytotoxicity against HEK293 cells assessed as effect on cell viability at 10 ug/ml incubated for 24 hrs by microplate reader analysis; format: toxicity, cell-based; conditions: human, hek293, 24 h, dose 10 µg/ml
[16] = tested on: Staphylococcus aureus; experiment: Synergistic antibacterial activity against methicillin resistant Staphylococcus aureus ATCC BAA -1556 assessed as fractional inhibitory concentration index incubated for 24 hrs in presence of vancomycin by checkerboard assay; format: functional
[17] = tested on: Pseudomonas aeruginosa; experiment: Synergistic antibacterial activity against Pseudomonas aeruginosa ATCC 27883 assessed as fractional inhibitory concentration index incubated for 24 hrs in presence of tobramycin by checkerboard assay; format: functional
[18] = tested on: Pseudomonas aeruginosa; experiment: Synergistic antibacterial activity against Pseudomonas aeruginosa ATCC 27883 assessed as fractional inhibitory concentration index incubated for 24 hrs in presence of vancomycin by checkerboard assay; format: functional
[19] = tested on: Klebsiella pneumoniae; experiment: Synergistic antibacterial activity against Klebsiella pneumoniae ATCC BAA 1705 assessed as fractional inhibitory concentration index incubated for 24 hrs in presence of tobramycin by checkerboard assay; format: functional
[20] = tested on: Klebsiella pneumoniae; experiment: Synergistic antibacterial activity against Klebsiella pneumoniae ATCC BAA 1705 assessed as fractional inhibitory concentration index incubated for 24 hrs in presence of clindamycin by checkerboard assay; format: functional
[21] = tested on: Klebsiella pneumoniae; experiment: Synergistic antibacterial activity against Klebsiella pneumoniae ATCC BAA 1705 assessed as fractional inhibitory concentration index incubated for 24 hrs in presence of ciprofloxacin by checkerboard assay; format: functional
[22] = tested on: Klebsiella pneumoniae; experiment: Synergistic antibacterial activity against Klebsiella pneumoniae ATCC BAA 1705 assessed as fractional inhibitory concentration index incubated for 24 hrs in presence of vancomycin by checkerboard assay; format: functional
[23] = tested on: Klebsiella pneumoniae; experiment: Synergistic antibacterial activity against Klebsiella pneumoniae ATCC BAA 1705 assessed as fractional inhibitory concentration index incubated for 24 hrs in presence of daptomycin by checkerboard assay; format: functional
[24] = tested on: Klebsiella pneumoniae; experiment: Antibacterial activity against Klebsiella pneumoniae ATCC BAA 1705 assessed as polymyxin B MIC incubated for 24 hrs by microbroth dilution assay; format: functional
[25] = tested on: Escherichia coli; experiment: Synergistic antibacterial activity against Escherichia coli ATCC 25922 assessed as fractional inhibitory concentration index incubated for 24 hrs in presence of kanamycin by checkerboard assay; format: functional
[26] = tested on: Klebsiella pneumoniae; experiment: Antibacterial activity against Klebsiella pneumoniae ATCC BAA 1705 assessed as levofloxacin MIC incubated for 24 hrs by microbroth dilution assay; format: functional
[27] = tested on: Escherichia coli; experiment: Synergistic antibacterial activity against Escherichia coli ATCC 25922 assessed as fractional inhibitory concentration index incubated for 24 hrs in presence of levofloxacin by checkerboard assay; format: functional
[28] = tested on: Escherichia coli; experiment: Synergistic antibacterial activity against Escherichia coli ATCC 25922 assessed as fractional inhibitory concentration index incubated for 24 hrs in presence of polymyxin B by checkerboard assay; format: functional
[29] = tested on: Staphylococcus aureus; experiment: Antibacterial activity against Staphylococcus aureus ATCC BAA -1556 assessed as tobramycin MIC incubated for 24 hrs by microbroth dilution assay; format: functional
[30] = tested on: Staphylococcus aureus; experiment: Antibacterial activity against Staphylococcus aureus ATCC BAA -1556 assessed as daptomycin MIC incubated for 24 hrs by microbroth dilution assay; format: functional
[31] = tested on: Pseudomonas aeruginosa; experiment: Antibacterial activity against Pseudomonas aeruginosa ATCC 27883 assessed as tobramycin MIC incubated for 24 hrs by microbroth dilution assay; format: functional
[32] = tested on: Pseudomonas aeruginosa; experiment: Antibacterial activity against Pseudomonas aeruginosa ATCC 27883 assessed as levofloxacin MIC incubated for 24 hrs by microbroth dilution assay; format: functional
[33] = tested on: Pseudomonas aeruginosa; experiment: Antibacterial activity against Pseudomonas aeruginosa ATCC 27883 assessed as polymyxin B MIC incubated for 24 hrs by microbroth dilution assay; format: functional
[34] = tested on: Escherichia coli; experiment: Antibacterial activity against Escherichia coli ATCC 25922 assessed as levofloxacin MIC incubated for 24 hrs by microbroth dilution assay; format: functional
[35] = tested on: Klebsiella pneumoniae; experiment: Antibacterial activity against Klebsiella pneumoniae ATCC BAA 1705 assessed as tetracycline MIC incubated for 24 hrs by microbroth dilution assay; format: functional
[36] = tested on: Klebsiella pneumoniae; experiment: Antibacterial activity against Klebsiella pneumoniae ATCC BAA 1705 assessed as kanamycin MIC incubated for 24 hrs by microbroth dilution assay; format: functional
[37] = tested on: Klebsiella pneumoniae; experiment: Antibacterial activity against Klebsiella pneumoniae ATCC BAA 1705 assessed as vancomycin MIC incubated for 24 hrs by microbroth dilution assay; format: functional
[38] = tested on: HepaRG; experiment: Cytotoxicity against human HepaRG cells assessed as assessed as reduction in cell viability at 50 to 150 ug/ml incubated for 24 hrs by microplate reader analysis relative to control; format: toxicity, cell-based; conditions: at 50 to 150 µg/mL, dose 50-150 µg/ml
[39] = Hemolytic activity in human Red blood cell incubated for 2 hrs by spectrophotometric analysis; format: toxicity, cell-based, Erythrocyte; conditions: red blood cells (erythrocytes)

`N=C(N)NCCC[C@@H]1NC(=O)[C@H](CCCNC(=N)N)NC(=O)[C@H](CCCNC(=N)N)NC(=O)[C@H](CCCNC(=N)N)NC(=O)[C@H](Cc2c[nH]c3ccccc23)NC(=O)[C@H](Cc2c[nH]c3ccccc23)NC(=O)[C@H](Cc2c[nH]c3ccccc23)NC(=O)[C@H](Cc2c[nH]c3ccccc23)NC(=O)[C@H](CCCCN)NC(=O)[C@H](CCCNC(=N)N)NC1=O` (cyclo(KWWWWRRRRR)) showed an MIC [1] of 4 µg/mL, an MIC [2] of 4 µg/mL and an MIC [3] of 16 µg/mL. For the same molecule, the MIC [4] was 16 µg/mL, the MIC [5] was 16 µg/mL and the “fractional inhibitory concentration index (FICI)” value [6] was 0.5. For the same molecule, the “fractional inhibitory concentration index (FICI)” value [7] was 0.156, the Activity [8] was “Active” and the Activity [9] was “Active”. For the same molecule, the Activity [10] was “Active”, the Activity [11] was “Active” and the Activity [12] was “Active”. For the same molecule, the Activity [13] was 48.2%, the Activity [14] was 81.3% and the Activity [15] was “Non-Toxic”. For the same molecule, the “fractional inhibitory concentration index (FICI)” value [16] was 0.5, the “fractional inhibitory concentration index (FICI)” value [17] was 0.5 and the “fractional inhibitory concentration index (FICI)” value [18] was 0.531. The “fractional inhibitory concentration index (FICI)” value [19] was 0.375, the “fractional inhibitory concentration index (FICI)” value [20] was 0.257 and the “fractional inhibitory concentration index (FICI)” value [21] was 0.562. The “fractional inhibitory concentration index (FICI)” value [22] was 0.5625, the “fractional inhibitory concentration index (FICI)” value [23] was 0.313 and the MIC [24] was 0.063 µg/mL. For the same molecule, the “fractional inhibitory concentration index (FICI)” value [25] was 0.375, the MIC [26] was 8 µg/mL and the “fractional inhibitory concentration index (FICI)” value [27] was 0.375. The “fractional inhibitory concentration index (FICI)” value [28] was 0.3125, the MIC [29] was 0.0625 µg/mL and the MIC [30] was 0.5 µg/mL. It also gave an MIC [31] of 0.125 µg/mL, an MIC [32] of 0.125 µg/mL and an MIC [33] of 0.125 µg/mL. It also gave an MIC [34] of 8 µg/mL, an MIC [35] of 1 µg/mL and an MIC [36] of 8 µg/mL. For the same molecule, the MIC [37] was 16 µg/mL, the Activity [38] was 71% and the HC50 at 2 h [39] was 320 µg/mL.

Reference: ChEMBL document CHEMBL5154823, “Amphiphilic cyclic peptide [W4KR5]-Antibiotics combinations as broad-spectrum antimicrobial agents” (Eur J Med Chem, 2022)
